According to ChEMBL document CHEMBL2010711, “Synthesis and comparative evaluation of 4-oxa- and 4-aza-podophyllotoxins as antiproliferative microtubule destabilizing agents” (Bioorg Med Chem Lett, 2012):
The source made the active and inactive calls.

How the values were obtained:
SNB-19 = assay: Cytotoxicity against human SNB19 cells after 48 hrs by trypan blue dye exclusion assay; format: functional; details: SNB-19, 48 h
NCI/ADR-RES = assay: Cytotoxicity against human NCI/ADR-RES cells after 48 hrs by trypan blue dye exclusion assay; format: functional
DU-145 = assay: Cytotoxicity against human DU145 cells after 48 hrs by trypan blue dye exclusion assay; format: functional; details: DU-145, 48 h
SK-OV-3 = assay: Cytotoxicity against human SKOV3 cells after 48 hrs by trypan blue dye exclusion assay; format: functional; details: SK-OV-3, 48 h
K562 = assay: Cytotoxicity against human K562 cells after 48 hrs by trypan blue dye exclusion assay; format: functional; details: K562, 48 h
EKVX = assay: Cytotoxicity against human EKVX cells after 48 hrs by trypan blue dye exclusion assay; format: functional
HCT-15 = assay: Cytotoxicity against human HCT15 cells after 48 hrs by trypan blue dye exclusion assay; format: functional; details: HCT-15, 48 h
HOP-92 = assay: Cytotoxicity against human HOP92 cells after 48 hrs by trypan blue dye exclusion assay; format: functional; details: HOP-92, 48 h
MOLT-4 = assay: Cytotoxicity against human MOLT4 cells after 48 hrs by trypan blue dye exclusion assay; format: functional; details: MOLT-4, 48 h
Jurkat = assay: Cytotoxicity against human Jurkat cells; format: functional, cell-based
A498 = assay: Cytotoxicity against human A498 cells after 48 hrs by trypan blue dye exclusion assay; format: functional; details: A498, 48 h
LOX IMVI = assay: Cytotoxicity against human LOXIMVI cells after 48 hrs by trypan blue dye exclusion assay; format: functional
786-0 = assay: Cytotoxicity against human 786-0 cells after 48 hrs by trypan blue dye exclusion assay; format: functional; details: 786-0, 48 h
RXF 393 = assay: Cytotoxicity against human RXF393 cells after 48 hrs by trypan blue dye exclusion assay; format: functional; details: RXF 393, 48 h
CAKI-1 = assay: Cytotoxicity against human CAKI-1 cells after 48 hrs by trypan blue dye exclusion assay; format: functional; details: CAKI-1, 48 h
SNB-75 = assay: Cytotoxicity against human SNB75 cells after 48 hrs by trypan blue dye exclusion assay; format: functional; details: SNB-75, 48 h
SK-MEL-5 = assay: Cytotoxicity against human SK-MEL-5 cells after 48 hrs by trypan blue dye exclusion assay; format: functional; details: SK-MEL-5, 48 h
MDA-MB-435 = assay: Cytotoxicity against human MDA-MB-435 cells after 48 hrs by trypan blue dye exclusion assay; format: functional; details: MDA-MB-435, 48 h
SK-MEL-28 = assay: Cytotoxicity against human SK-MEL-28 cells after 48 hrs by trypan blue dye exclusion assay; format: functional; details: SK-MEL-28, 48 h
IGROV-1 = assay: Cytotoxicity against human IGROV1 cells after 48 hrs by trypan blue dye exclusion assay; format: functional; details: IGROV-1, 48 h
HL-60(TB) = assay: Cytotoxicity against human HL-60(TB) cells after 48 hrs by trypan blue dye exclusion assay; format: functional; details: HL-60, 48 h
ACHN = assay: Cytotoxicity against human ACHN cells after 48 hrs by trypan blue dye exclusion assay; format: functional
BT-549 = assay: Cytotoxicity against human BT549 cells after 48 hrs by trypan blue dye exclusion assay; format: functional; details: BT-549, 48 h
Malme-3M = assay: Cytotoxicity against human MALME-3M cells after 48 hrs by trypan blue dye exclusion assay; format: functional
OVCAR-4 = assay: Cytotoxicity against human OVCAR4 cells after 48 hrs by trypan blue dye exclusion assay; format: functional; details: OVCAR-4, 48 h
UACC-257 = assay: Cytotoxicity against human UACC257 cells after 48 hrs by trypan blue dye exclusion assay; format: functional; details: UACC-257, 48 h
NCI-H460 = assay: Cytotoxicity against human NCI-H460 cells after 48 hrs by trypan blue dye exclusion assay; format: functional; details: NCI-H460, 48 h
Paracentrotus lividus [1] = assay: Antimitotic activity against Paracentrotus lividus embryo assessed as cleavage arrest at 2 fold less effective threshold concentration after 2.5 to 6 hrs; format: functional, organism-based
SR = assay: Cytotoxicity against human SR cells after 48 hrs by trypan blue dye exclusion assay; format: functional
MDA-MB-468 = assay: Cytotoxicity against human MDA-MB-468 cells after 48 hrs by trypan blue dye exclusion assay; format: functional; details: MDA-MB-468, 48 h
HT-29 = assay: Cytotoxicity against human HT-29 cells after 48 hrs by trypan blue dye exclusion assay; format: functional; details: HT-29, 48 h
PC-3 = assay: Cytotoxicity against human PC3 cells after 48 hrs by trypan blue dye exclusion assay; format: functional; details: PC-3, 48 h
Paracentrotus lividus [2] = assay: Antimitotic activity against Paracentrotus lividus embryo assessed as concentration required to cause 100% cleavage alteration after 2.5 to 6 hrs; format: functional
OVCAR-5 = assay: Cytotoxicity against human OVCAR5 cells after 48 hrs by trypan blue dye exclusion assay; format: functional; details: OVCAR-5, 48 h
NCI-H226 = assay: Cytotoxicity against human NCI-H226 cells after 48 hrs by trypan blue dye exclusion assay; format: functional; details: NCI-H226, 48 h
UO-31 = assay: Cytotoxicity against human UO31 cells after 48 hrs by trypan blue dye exclusion assay; format: functional; details: UO-31, 48 h
MCF7 = assay: Cytotoxicity against human MCF7 cells after 48 hrs by trypan blue dye exclusion assay; format: functional; details: MCF7, 48 h
[3] = Cytotoxicity against human Hs 578T cells after 48 hrs by trypan blue dye exclusion assay; format: functional
Paracentrotus lividus [4] = assay: Antimitotic activity against Paracentrotus lividus embryo assessed as cleavage alteration at 2 fold less effective threshold concentration after 2.5 to 6 hrs; format: functional, organism-based
RPMI-8226 = assay: Cytotoxicity against human RPMI8226 cells after 48 hrs by trypan blue dye exclusion assay; format: functional; details: RPMI-8226, 48 h
SN12C = assay: Cytotoxicity against human SN12C cells after 48 hrs by trypan blue dye exclusion assay; format: functional
M14 = assay: Cytotoxicity against human M14 cells after 48 hrs by trypan blue dye exclusion assay; format: functional; details: M14, 48 h
NCI-H23 = assay: Cytotoxicity against human NCI-H23 cells after 48 hrs by trypan blue dye exclusion assay; format: functional; details: NCI-H23, 48 h
SW-620 = assay: Cytotoxicity against human SW620 cells after 48 hrs by trypan blue dye exclusion assay; format: functional; details: SW-620, 48 h
SF-268 = assay: Cytotoxicity against human SF268 cells after 48 hrs by trypan blue dye exclusion assay; format: functional; details: SF-268, 48 h
A549 = assay: Cytotoxicity against human A549 cells after 48 hrs by trypan blue dye exclusion assay; format: functional; details: A549, 48 h
COLO 205 = assay: Cytotoxicity against human COLO205 cells after 48 hrs by trypan blue dye exclusion assay; format: functional; details: COLO 205, 48 h
KM12 = assay: Cytotoxicity against human KM12 cells after 48 hrs by trypan blue dye exclusion assay; format: functional; details: KM12, 48 h
CCRF-CEM = assay: Cytotoxicity against human CCRF-CEM cells after 48 hrs by trypan blue dye exclusion assay; format: functional
UACC-62 = assay: Cytotoxicity against human UACC62 cells after 48 hrs by trypan blue dye exclusion assay; format: functional; details: UACC-62, 48 h
OVCAR-3 = assay: Cytotoxicity against human OVCAR3 cells after 48 hrs by trypan blue dye exclusion assay; format: functional; details: OVCAR-3, 48 h

Which GI50 (SNB-19) does the source give for `COc1ccc2c(c1)OC1=C(C(=O)OC1)C2c1cc(OC)c2c(c1)OCO2` (stereo not drawn) here?
Its GI50 is 47.9 nM.

What about the GI50 (NCI/ADR-RES) of the same molecule?
Its GI50 is 18.6 nM.

And the GI50 (DU-145)?
The GI50 was 35.2 nM.

What about the GI50 (SK-OV-3) of the same molecule?
Its GI50 is 29.3 nM.

What about the GI50 (K562) of the same molecule?
The GI50 was 33 nM.

What about the GI50 (EKVX) of the same molecule?
The GI50 was 77.8 nM.

What about the GI50 (HCT-15) of the same molecule?
The GI50 was 47.5 nM.

What about the GI50 (HOP-92) of the same molecule?
Its GI50 is 73 µM.

And the GI50 (MOLT-4)?
Its GI50 is 65 nM.

What about the IC50 (Jurkat) of the same molecule?
The IC50 was 55 nM.

What about the GI50 (A498) of the same molecule?
Its GI50 is 27.2 nM.

And the GI50 (LOX IMVI)?
Its GI50 is 69.1 nM.

What about the GI50 (786-0) of the same molecule?
Its GI50 is 51.4 nM.

What about the GI50 (RXF 393) of the same molecule?
The GI50 was 17.8 nM.

What about the GI50 (CAKI-1) of the same molecule?
The GI50 was 58 nM.

And the GI50 (SNB-75)?
The GI50 was 13.9 nM.

What about the GI50 (SK-MEL-5) of the same molecule?
The GI50 was 36.9 nM.

And the GI50 (MDA-MB-435)?
The GI50 was < 10 nM.

And the GI50 (SK-MEL-28)?
Its GI50 is 34.2 nM.

What about the GI50 (IGROV-1) of the same molecule?
The GI50 was 62.4 nM.

And the GI50 (HL-60(TB))?
Its GI50 is 30.3 nM.

What about the GI50 (ACHN) of the same molecule?
Its GI50 is 267 nM.

And the GI50 (BT-549)?
Its GI50 is 107 nM.

What about the GI50 (Malme-3M) of the same molecule?
The GI50 was > 100 µM.

What about the GI50 (OVCAR-4) of the same molecule?
Its GI50 is 59.8 nM.

And the GI50 (UACC-257)?
Its GI50 is 21.3 µM.

What about the GI50 (NCI-H460) of the same molecule?
Its GI50 is 36.6 nM.

And the Activity (Paracentrotus lividus [1])?
The Activity was “inactive”.

And the GI50 (SR)?
Its GI50 is 37.8 nM.

And the GI50 (MDA-MB-468)?
Its GI50 is 26.3 nM.

And the GI50 (HT-29)?
Its GI50 is 33.1 nM.

And the GI50 (PC-3)?
The GI50 was 40.9 nM.

And the EC (Paracentrotus lividus [2])?
The EC was 2 nM.

What about the GI50 (OVCAR-5) of the same molecule?
The GI50 was 153 nM.

And the GI50 (NCI-H226)?
Its GI50 is 33.4 nM.

What about the GI50 (UO-31) of the same molecule?
The GI50 was 57.6 nM.

And the GI50 (MCF7)?
The GI50 was 29.1 nM.

And the GI50 [3]?
Its GI50 is 30.8 nM.

And the Activity (Paracentrotus lividus [4])?
The Activity was “inactive”.

And the GI50 (RPMI-8226)?
The GI50 was 48.5 nM.

What about the GI50 (SN12C) of the same molecule?
The GI50 was 62.5 nM.

What about the GI50 (M14) of the same molecule?
The GI50 was 23.3 nM.

What about the GI50 (NCI-H23) of the same molecule?
The GI50 was 23.5 nM.

What about the GI50 (SW-620) of the same molecule?
The GI50 was 39.2 nM.

And the GI50 (SF-268)?
The GI50 was 78 nM.

And the GI50 (A549)?
The GI50 was 44.4 nM.

What about the GI50 (COLO 205) of the same molecule?
The GI50 was 27.8 nM.

And the TGI (COLO 205)?
Its TGI is 69.2 nM.

What about the GI50 (KM12) of the same molecule?
Its GI50 is 29.6 nM.

What about the GI50 (CCRF-CEM) of the same molecule?
Its GI50 is 37 nM.

What about the GI50 (UACC-62) of the same molecule?
Its GI50 is 35 nM.

What about the GI50 (OVCAR-3) of the same molecule?
The GI50 was 20.9 nM.

What about the TGI (OVCAR-3) of the same molecule?
Its TGI is 44.6 nM.
